US20050009924A1 (priority 2003, published 2005)
Like-named read-outs stand apart in the source and are kept apart here.

What was measured:
human hepatoma G2 cells = assay: Cytotoxicity assay (XTT colorimetric), Hep G2; assay type: cell-based; conditions: 48 h of drug exposure
rat glioma C6 cells = assay: Cytotoxicity assay (XTT colorimetric), C6 cells; assay type: cell-based; conditions: 48 h of drug exposure
[1] = test system: hepatitis B virus transfected hepatoma cell lines, HepG 2.2.15 cells; assay: Cytotoxicity assay, 2.2.15 cells; assay type: cell-based, human; conditions: 48 h of drug exposure
[2] = test system: transcriptional activity of hTERT; assay: SEAP reporter assay of hTERT expression, PhTERT-SEAP (hTERT-BJ1); assay type: cell-based, human; conditions: hTERT-BJ1
Method in brief: (§1)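 Drug exposure: varying amounts, 24 h, following 24 h culture at 37° C and fresh medium. Media heat-inactivated (65° C, 10 min) to remove endogenous phosphatases, then combined 1:1 with diethanolamine/MgCl2/homoarginine buffer and 12 mM p-nitrophenyl phosphate; A405 slope recorded.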

[3] = test system: transcriptional activity of hTERT; assay: SEAP reporter assay of hTERT expression, PhTERT-SEAP (H1299); assay type: cell-based, human; conditions: hTERT-H1299
Method in brief: as §1

[4] = test system: non-small-cell lung cancer cells H1299

Question: Which IC50 (human hepatoma G2 cells) does the source give for O=C1c2cccc(NCCCCO)c2C(=O)c2cccc(NCCCCO)c21 [IVk, 1,5-Bis(butanolamino-)-anthraquinone] here?
Answer: Its IC50 is over 20 µM.

Question: And the IC50 (rat glioma C6 cells)?
Answer: Its IC50 is over 20 µM.

Question: And the IC50 [1]?
Answer: The IC50 was 10.3 ± 0.24 µM.

Question: And the “Relative SEAP activity (%)” value ([2]; 2.6 μM)?
Answer: Its value is 114 ± 20.5%.

Question: What about the “Relative SEAP activity (%)” value ([2]; 26 μM) of the same compound?
Answer: Its value is 113 ± 21.6%.

Question: What about the “Relative SEAP activity (%)” value ([2]; 265 μM) of the same compound?
Answer: The value was 127 ± 19.9%.

Question: And the “Relative SEAP activity (%)” value ([3]; 2.6 μM)?
Answer: Its value is 89 ± 4.9%.

Question: And the “Relative SEAP activity (%)” value ([3]; 26 μM)?
Answer: The value was 71 ± 9.8%.

Question: And the “Relative SEAP activity (%)” value ([3]; 265 μM)?
Answer: The value was 27 ± 2.0%.

Question: What about the “Relative MTT viability (%)” value (hTERT-BJ1 cells; 2.6 µM) of the same compound?
Answer: The value was 101 ± 10.5%.

Question: What about the “Relative MTT viability (%)” value (hTERT-BJ1 cells; 26 µM) of the same compound?
Answer: Its value is 101 ± 8.8%.

Question: And the “Relative MTT viability (%)” value (hTERT-BJ1 cells; 265 µM)?
Answer: Its value is 91 ± 11.8%.

Question: And the “Relative MTT viability (%)” value ([4]; 2.6 µM)?
Answer: Its value is 114 ± 8.1%.

Question: And the “Relative MTT viability (%)” value ([4]; 26 µM)?
Answer: Its value is 110 ± 7.1%.

Question: What about the “Relative MTT viability (%)” value ([4]; 265 µM) of the same compound?
Answer: The value was 16 ± 3.4%.
